Reference: patent publication US4005103A, “Pyrrolidine derivatives” (priority 1973, dated 1977)
Structures can show the parent of a compound that is named as a salt. Where two headings read alike, the source gives them in different places.

Legend:
[1] = Toxicity, mice in groups (death rate); conditions: mouse, in vivo, 4 hours after treatment, read-out: percentage death rate
Protocol: (§1) Batches of 10 mice are placed in boxes covered with grids (20 × 10 × 10 cm), either isolated individually, or in groups of 10. The test compound is administered orally to them. The death rate is noted 4 hours after the treatment.
(§2) Tables IV and V below give the percentage death rate for the products of Examples XXIV and XXVII compared with d-amphetamine sulphate.

[2] = Toxicity, isolated mice (death rate); conditions: mouse, in vivo, 4 hours after treatment, read-out: percentage death rate
Protocol: as §1, §2

[3] = Cardiovascular activity in anaesthetised dogs; assay type: in vivo; conditions: for pulmonary and systemic hypertension: amphetamine injected intravenously
Text: 5. CARDIOVASCULAR ACTIVITY

[4] = Clinical activity (food intake in man); assay type: in vivo; conditions: daily dose of 50 mg
Protocol: The compounds are preferably presented in a form suitable for oral administration, for example in the form of gelatin-coated pills containing 25 mg of the active ingredient.

[5] = Anorexigenic activity in dogs; assay type: in vivo, Beagle dogs; conditions: Canis lupus familiaris, read-out: percentage inhibition of consuming food
Protocol: 2. ANOREXIGENIC ACTIVITY IN DOGS
Beagle dogs are conditioned to take their food over the course of 5 minutes once per day. The test compound is administered orally in the form of a single dose of 10 mg/kg one hour before the food is presented. The amount of food ingested is measured at regular intervals.
Table II gives the percentage inhibition of consuming food as a function of the time after treatment.

[6] = Anorexigenic activity in rats; assay type: in vivo, Sprague Dawley male rats; conditions: for ED50: Rattus norvegicus, oral, Litchfield and Wilcoxon method, read-out: ED50 (50% inhibiting dose in relation to the consumption of food)
Protocol: 3. ANOREXIGENIC ACTIVITY IN RATS
Two batches of three Sprague Dawley male rats (130 - 180 g) are conditioned to take their daily food over the course of 7 hours. Water is given as desired. The test compound is administered orally 30 minutes before the food is presented. The amount ingested is measured 1 hour and 2 hours later. The 50% inhibiting dose in relation to the consumption of food (ED50) and the confidence range are calculated according to the Litchfield and Wilcoxon method.
Table III gives the percentage inhibition in relation to the consumption of food as a function of the doses administered.

[7] = Potentiation of amphetamine: stereotypies in rats after d-amphetamine sulphate; assay type: in vivo; conditions: 30 min before 5 mg/kg d-amphetamine sulphate i.p., over 3 hours, maximum 24
Protocol: 1. POTENTIATION OF AMPHETAMINE
The test compound is administered intraperitoneally to rats 30 minutes before the intraperitoneal injection of 5 mg/kg of d-amphetamine sulphate. The intensity of the stereotypies over a period of 3 hours is assessed by attributing a number from 0 to 4. Table I indicates the sum of the assessments as a function of the doses administered. The maximum assessment is 24.

[8] = Beagle dogs, 10 mg/kg oral, 1 hr after treatment
[9] = Beagle dogs, 10 mg/kg oral, 2 hrs after treatment

Structure (SMILES)	mortality at 4 h ([1]; 16 mg/kg oral) [%]	mortality at 4 h ([1]; 32 mg/kg oral) [%]	mortality at 4 h ([2]; 16 mg/kg oral) [%]	mortality at 4 h ([2]; 32 mg/kg oral) [%]	mortality at 4 h ([2]; 64 mg/kg oral) [%]	pulmonary and systemic hypertension [3]	inhibition in vivo at 10 mg/kg ([5]; po, 1 h) [%]	inhibition in vivo at 10 mg/kg ([5]; po, 2 h) [%]	inhibition in vivo at 10 mg/kg ([5]; po, 4 h) [%]	inhibition in vivo at 10 mg/kg ([5]; po, 24 h) [%]	sum of the assessments of intensity of stereotypies ([7]; 1 mg/kg intraperitoneal)	sum of the assessments of intensity of stereotypies ([7]; 4 mg/kg intraperitoneal)	sum of the assessments of intensity of stereotypies ([7]; 16 mg/kg intraperitoneal)	inhibition in vivo at 10 mg/kg [5, 8] [%]	inhibition in vivo at 10 mg/kg [5, 9] [%]	sum of the assessments of intensity of stereotypies ([7]; 2 mg/kg intraperitoneal)	sum of the assessments of intensity of stereotypies ([7]; 8 mg/kg intraperitoneal)	sum of the assessments of intensity of stereotypies ([7]; 32 mg/kg intraperitoneal)	other results
CC(N)Cc1ccccc1 (stereo not drawn) [Amphetamine, d-amphetamine sulphate, reference compound]	100	100	0	0	10	causes pulmonary and systemic hypertension													mortality at 4 h ([1]; 4 mg/kg oral): 0%; mortality at 4 h ([1]; 8 mg/kg oral): 20%; mortality at 4 h ([2]; 128 mg/kg oral): 100%
CC1NC(C2CC2)CC1c1ccc(Cl)cc1.Cl (stereo not drawn) [XXIV, 2-cyclopropyl-4-(p-chlorophenyl)-5-methylpyrrolidine hydrochloride]	0	0	0	0	0	do not cause these phenomena	100	100	100	80	7	22	24						amount of food ingested daily [4]: a decrease in the amount of food ingested daily; inhibition in vivo at 10 mg/kg ([5]; po, 48 h): 50%; mortality at 4 h ([1]; 64 mg/kg oral): 0%; mortality at 4 h ([1]; 128 mg/kg oral): 0%; percentage inhibition in relation to the consumption of food ([6]; 1 mg/kg oral, 1 hr): 6%; percentage inhibition in relation to the consumption of food ([6]; 1 mg/kg oral, 2 hrs): 5%; percentage inhibition in relation to the consumption of food ([6]; 2 mg/kg oral, 1 hr): 44%; percentage inhibition in relation to the consumption of food ([6]; 2 mg/kg oral, 2 hrs): 53%; percentage inhibition in relation to the consumption of food ([6]; 4 mg/kg oral, 1 hr): 47%; percentage inhibition in relation to the consumption of food ([6]; 4 mg/kg oral, 2 hrs): 34%; percentage inhibition in relation to the consumption of food ([6]; 8 mg/kg oral, 1 hr): 77%; percentage inhibition in relation to the consumption of food ([6]; 8 mg/kg oral, 2 hrs): 71%; percentage inhibition in relation to the consumption of food ([6]; 16 mg/kg oral, 1 hr): 77%; percentage inhibition in relation to the consumption of food ([6]; 16 mg/kg oral, 2 hrs): 80%; ED50 ([6]; 1 hr): 3.5 mg/kg; ED50 ([6]; 2 hrs): 5.6 mg/kg; mortality at 4 h ([2]; 128 mg/kg oral): 27%; systemic hypotension [3]: cause systemic hypotension
CC1NC(C2CC2)CC1c1ccc(Cl)c(Cl)c1.Cl (stereo not drawn) [XXVII, 2-cyclopropyl-4-(3',4'-dichlorophenyl)-5-methylpyrrolidine hydrochloride]	0	0	0	20	70	do not cause these phenomena	100	100	100	100	21	23	24						amount of food ingested daily [4]: a decrease in the amount of food ingested daily; inhibition in vivo at 10 mg/kg ([5]; po, 48 h): 100%; mortality at 4 h ([1]; 64 mg/kg oral): 0%; mortality at 4 h ([1]; 128 mg/kg oral): 70%; percentage inhibition in relation to the consumption of food ([6]; 0.5 mg/kg oral, 1 hr): 25%; percentage inhibition in relation to the consumption of food ([6]; 0.5 mg/kg oral, 2 hrs): 30%; percentage inhibition in relation to the consumption of food ([6]; 1 mg/kg oral, 1 hr): 39%; percentage inhibition in relation to the consumption of food ([6]; 1 mg/kg oral, 2 hrs): 36%; percentage inhibition in relation to the consumption of food ([6]; 2 mg/kg oral, 1 hr): 28%; percentage inhibition in relation to the consumption of food ([6]; 2 mg/kg oral, 2 hrs): 37%; percentage inhibition in relation to the consumption of food ([6]; 4 mg/kg oral, 1 hr): 58%; percentage inhibition in relation to the consumption of food ([6]; 4 mg/kg oral, 2 hrs): 55%; percentage inhibition in relation to the consumption of food ([6]; 8 mg/kg oral, 1 hr): 84%; percentage inhibition in relation to the consumption of food ([6]; 8 mg/kg oral, 2 hrs): 83%; percentage inhibition in relation to the consumption of food ([6]; 16 mg/kg oral, 1 hr): 100%; percentage inhibition in relation to the consumption of food ([6]; 16 mg/kg oral, 2 hrs): 100%; ED50 ([6]; 1 hr): 2.3 mg/kg; ED50 ([6]; 2 hrs): 2.2 mg/kg; systemic hypotension [3]: cause systemic hypotension
COc1ccc(C2CC(C3CC3)NC2C)cc1OC.Cl (stereo not drawn) [XXXI, 2-cyclopropyl-4-(3',4'-dimethoxyphenyl)-5-methylpyrrolidine hydrochloride]														0	0	10	24	23	
CC1(C)NC(C2CC2)CC1c1ccc2c(c1)OCO2 (stereo not drawn) [XXXII, 2-cyclopropyl-4-(3',4'-methylenedioxyphenyl)-5,5-dimethylpyrrolidine hydrochloride]							100	100	100	0						18	24	23	
Cc1ccc(C2CC(C3CC3)NC2C)cc1.Cl (stereo not drawn) [XXXIII, 2-cyclopropyl-4-(p-methylphenyl)-5-methyl-pyrrolidine hydrochloride]							0	0								12	19	24	
CC1C(c2ccc(Cl)c(Cl)c2)CC(C2CC2)N1Cc1ccccc1.Cl (stereo not drawn) [XXXIV, N-benzyl-2-cyclopropyl-4-(3',4'-dichlorophenyl)-5-methylpyrrolidine hydrochloride]														100	100	20	21	15	inhibition in vivo at 10 mg/kg ([5]; Beagle dogs, 10 mg/kg oral, 4 hrs after treatment): 100%; inhibition in vivo at 10 mg/kg ([5]; Beagle dogs, 10 mg/kg oral, 24 hrs after treatment): 50%; inhibition in vivo at 10 mg/kg ([5]; Beagle dogs, 10 mg/kg oral, 48 hrs after treatment): 0%
C#CCN1C(C)C(c2ccc(Cl)cc2)CC1C1CC1.Cl (stereo not drawn) [XXXVI, N-propargyl-2-cyclopropyl-4-(p-chlorophenyl)-5-methylpyrrolidine hydrochloride]							0	0									24	24	
CC1C(c2ccc(Cl)cc2)CC(C2CC2)N1CCO.Cl (stereo not drawn) [XXXVII, N-hydroxyethyl-2-cyclopropyl-4-(p-chlorophenyl)-5-methylpyrrolidine hydrochloride]													24	0	0	12		24	
CCN1C(C)C(c2cccc(C(F)(F)F)c2)CC1C1CC1 (stereo not drawn) [XXXVIII, N-ethyl-2-cyclopropyl-4-(m-trifluoromethylphenyl)-5-methylpyrrolidine]							0	0			20	24					24		
